Experiment [1] has as its system Pseudomonas aeruginosa. As to the kind of experiment: Inhibition of IMP-1 in mexAB-deficient Pseudomonas aeruginosa KG5002/pMS363 assessed as MIC of BIPM at 50 ug/ml by microbroth dilution method. (Broth dilution looks for growth in wells or tubes with falling amounts of substance.)
A short description of experiment [2]: Inhibition of carbapenems-resistant Pseudomonas aeruginosa PAO1/pMS363 IMP-1 using nitrocefin as substrate after 20 mins by spectrophotometric analysis.
The subject of experiment [3] is Pseudomonas aeruginosa. Kind of experiment: Inhibition of IMP-1 in Pseudomonas aeruginosa PAO1/pMS363 assessed as MIC of BIPM at 50 ug/ml by microbroth dilution method.

With `O=C(O)c1c(N2CCC(O)CC2)ccc(N2CCC(O)CC2)c1C(=O)O`, the MIC in the experiment on Pseudomonas aeruginosa [1] was less than 0.25 µg/mL; in the experiment with Pseudomonas aeruginosa [3] it was 0.5 µg/mL. Moreover, in experiment [2], half-maximal inhibition (IC50) required 270 nM.
Consider `Cc1ccc(N2CCC(O)CC2)c(C(=O)O)c1C(=O)O`, for which the figures for the MIC in the experiment on Pseudomonas aeruginosa [1] and with Pseudomonas aeruginosa [3] were less than 0.25 µg/mL and 1 µg/mL, respectively. For the same molecule, inhibition in experiment [2] was half-maximal at 700 nM (IC50).
Regarding `CN(C)c1ccc(N2CCC(O)CC2)c(C(=O)O)c1C(=O)O`, the MIC with Pseudomonas aeruginosa [1] is less than 0.25 µg/mL; in the experiment with Pseudomonas aeruginosa [3] it was 1 µg/mL. In addition, inhibition in experiment [2] was half-maximal at 4100 nM (IC50).
Regarding `O=C(O)c1cccc(N2CCC(O)CC2)c1C(=O)O`, the MIC in the experiment with Pseudomonas aeruginosa [1] is less than 0.25 µg/mL; with Pseudomonas aeruginosa [3], 1 µg/mL. Moreover, the IC50 (in general, the concentration that gives 50% inhibition) in experiment [2] turned out to be 2700 nM.
Take `O=C(O)c1c(F)ccc(N2CCC(O)CC2)c1C(=O)O`: the MIC in the experiment on Pseudomonas aeruginosa [1] was determined as 1 µg/mL; in the experiment with Pseudomonas aeruginosa [3], 2 µg/mL. 17500 nM corresponded to half-maximal inhibition in experiment [2] (IC50).

The record behind these values is ChEMBL document CHEMBL3352464, “X-ray crystallographic analysis of IMP-1 metallo-β-lactamase complexed with a 3-aminophthalic acid derivative, structure-based drug design, and synthesis of 3,6-disubstituted phthalic acid derivative inhibitors” (Bioorg Med Chem Lett, 2014).
